The source of these data is US5219879A, “Heterocyclic steroid compounds” (Du Pont Merck Pharmaceutical Company, priority 1991, dated 1993).

pIC50: −log10 of the molar value.

In one assay the test system is 3-Hydroxy-3-Methylglutaryl Coenzyme A Reductase (HMGR). Nature of the assay: 3-Hydroxy-3-Methylglutaryl Coenzyme A Reductase (HMGR) Suppression Assay. Type of assay: cell-based, Chinese Hamster (CHO cells). The conditions noted are these: CHO cells, 6 hr. at 37°; read-out: IC50 (amount of compound required to suppress HMGR activity by 50% relative to controls).
Experimental: The ability of the compounds of Formula I to suppress the activity of HMGR, the rate limiting enzyme of cholesterol biosynthesis, was tested as follows.
Chinese Hamster Ovary (CHO) cells were divided twice weekly and were maintained in McCoy's 5A medium supplemented with 1% carbosil delipidated Fetal Bovine System (FBS) (obtained from Gibco Laboratories, Chagrin Falls, Ohio). Cells were harvested during the logarithmic phase of growth and cell cultures were prepared by adding […] cells to each well in a 24 well cluster dish (obtained from Costar, Data Packaging Corp., Cambridge, Mass.) employing 1 ml of the above medium per each well. […] Control cells were treated in an identical fashion to those which received test compound, except they were incubated with the BSA and ethanol suspension only.
Specifically, the medium in each well was aspirated and the cells rinsed with a 50 mM solution of phosphate buffered saline (PBS). One ml of 30 mg/ml of digitonin in CSK buffer (prepared using 10 mM Pipes [piperazine-N,N'-bis (2-ethansulfonic) acid], 100 mM KCl, 2.5 mM MgCl2, 300 mM sucrose, 1 mM EGTA, pH 6.8) was added to each well and incubated for 10 min. at 22° to permeabilize the cells. The buffer was carefully aspirated and the wells were rinsed twice each time with 1 ml of PBS. HMGR activity was measured directly by adding 75 ml of PIB buffer (50 mM potassium phosphate, 1 mM Na2 EDTA, 10 mM dithiothreitol, pH 7.4) to each well and incubating the cells for 30 minutes at 37° as described above. […] The assay mixture was incubated for 30 min. at 37° and terminated by the addition of 70 ml of [^3 H]-mevalonicacid (35,000 DPM/assay), 0.15 mg/ml in 3N HCl.
The reaction was left to lactonize for an additional 30 min. at 37° or overnight at room temperature.
Reaction products were separated by thin layer chromatography on silica gel G (obtained from Analtech, Newark, Del.) developed in an unsaturated environment with acetone:benzene (3:2, v:v). The band corresponding to mevalonolactone was identified by exposure to iodine vapor and was scraped into counting vials. The extent of conversion of starting substrate, HMG-CoA, to mevalonic acid was determined by liquid scintillation counting in Biofluor (obtained from New England Nuclear, Boston, Mass.). Corrections for recovery and blank values were made for each sample. Protein determinations were made by Bio-Rad (Bio-Rad, Richmond, Calif.) dye binding assay according to the manufacturer's instruction using bovine serum albumin as standard. Cellular protein was solubilized from culture dishes by the addition of 20 μl of 16N KOH and assayed directly for protein amount. Suppression values are expressed as the amount of compound required to suppress HMGR activity by 50% relative to that of the controls.
Consider `CC(C)CCC[C@@H](C)[C@H]1CO[C@H]2C3=C(CC[C@]12C)[C@@]1(C)CC[C@H](O)C(C)(C)[C@@H]1CC3` [Example 2, 4,4-Dimethyl-15-oxa-5a-cholest-8-en-3b-ol], for which the pIC50 was 6.52.
With `C=C[C@@]12OC[C@H]([C@H](C)CCCC(C)C)[C@@]1(C)CCC1=C2CC[C@H]2C(C)(C)[C@@H](O)CC[C@]12C` [Example 3, 4,4-Dimethyl-15-oxa-14a-vinyl-5a-cholest-8-en-3b-ol], the pIC50 was 6.77.
Consider `CC(=O)O[C@H]1CC[C@]2(C)C3=C(CC[C@H]2C1(C)C)[C@]1(C=O)OC[C@H]([C@H](C)CCCC(C)C)[C@@]1(C)CC3` [Example 6, 3b-Acetoxy-15-oxa-32-oxolanost-8-ene], for which the pIC50 was 7.12.
For `CC(C)CCC[C@@H](C)[C@H]1CO[C@@]2(C=O)C3=C(CC[C@]12C)[C@@]1(C)CC[C@H](O)C(C)(C)[C@@H]1CC3` [Example 7, 15-Oxa 32-oxodihydrolanosterol], the pIC50 was 7.40.
`CC(C)CCC[C@@H](C)[C@H]1CO[C@@]2(CO)C3=C(CC[C@]12C)[C@@]1(C)CC[C@H](O)C(C)(C)[C@@H]1CC3` [Example 8, 15-Oxa-lanost-8-ene-3b,32-diol]: the pIC50 is 5.60.
`CC(C)CCC[C@@H](C)[C@H]1CO[C@@]2(C=NO)C3=C(CC[C@]12C)[C@@]1(C)CC[C@H](O)C(C)(C)[C@@H]1CC3` [Example 10, 3b-Hydroxy-15-oxa-lanost-8-en-32-aldoxime]: the pIC50 was 6.70.
As to `CC(C)CCC[C@@H](C)[C@H]1CO[C@@]2(C)C3=C(CC[C@]12C)[C@@]1(C)CC[C@H](O)C[C@@H]1CC3` [Example 13, 14a-Methyl-15-oxa-5a-cholest-8-en-3b-ol], the pIC50 is 5.60.
On the same count and under the same terms, to `CC(C)CCC[C@@H](C)[C@H]1CO[C@@]2([C@H](O)CO)C3=C(CC[C@]12C)[C@@]1(C)CC[C@H](O)C[C@@H]1CC3` [Example 16] belongs 5.60; to `CC(C)CCC[C@@H](C)[C@H]1CO[C@@]2([C@@H](O)CO)C3=C(CC[C@]12C)[C@@]1(C)CC[C@H](O)C[C@@H]1CC3` [Example 17], 5.71.
Still for that read-out and setting: to `CC(C)CCC[C@@H](C)[C@H]1CO[C@@]2(C=O)C3=C(CC[C@]12C)[C@@]1(C)CC[C@H](O)C[C@@H]1CC3` [Example 18] belongs 6.52; to `CC(C)CCC[C@@H](C)[C@H]1CO[C@@]2(CO)C3=C(CC[C@]12C)[C@@]1(C)CC[C@H](O)C[C@@H]1CC3` [Example 19], 5.68; to `CC(C)CCC[C@@H](C)[C@H]1CO[C@@]2(C=O)C3=C(CC[C@]12C)[C@@]1(C)CCC(=O)C(C)(C)[C@@H]1CC3` [Example 386], 7.10.
For `CC(C)CCC[C@@H](C)[C@H]1CCO[C@H]2C3=C(CC[C@]12C)[C@@]1(C)CC[C@H](O)C(C)(C)[C@@H]1CC3` [Example 673, 4,4-dimethyl-14a-Oxa-D-homo-5a-cholest-8-en-3b-ol], the pIC50 is 5.84.
For `CC(C)CCC[C@@H](C)[C@H]1CCO[C@@]2(C=O)C3=C(CC[C@]12C)[C@@]1(C)CC[C@H](O)C(C)(C)[C@@H]1CC3` [Example 677, 14a-Oxa-32-oxo-D-homo-dihydrolanosterol], the pIC50 is 5.60.
Consider `CC(C)CCC[C@@H](C)[C@H]1CS[C@@]2(C)C3=C(CC[C@]12C)[C@@]1(C)CC[C@H](O)C(C)(C)[C@@H]1CC3` [Example 857], for which the pIC50 is 7.22.
With `CC(C)CCC[C@@H](C)[C@H]1CS[C@H]2C3=C(CC[C@]12C)[C@@]1(C)CC[C@H](O)C(C)(C)[C@@H]1CC3` [Example 858, 4,4-Dimethyl-15-thia-5a-cholest-8-en-3b-ol], the pIC50 was 6.26.
In the case of `C=C[C@@]12SC[C@H]([C@H](C)CCCC(C)C)[C@@]1(C)CCC1=C2CC[C@H]2C(C)(C)[C@@H](O)CC[C@]12C` [Example 859, 4,4-Dimethyl-15-thia-14a-vinyl-5a-cholest-8-en-3b-ol], the pIC50 is 7.22.
For `CC(C)CCC[C@@H](C)[C@H]1C[S+]([O-])[C@@]2(C)C3=C(CC[C@]12C)[C@@]1(C)CC[C@H](O)C(C)(C)[C@@H]1CC3` (some centres unmarked) [Example 1303], the pIC50 was 6.52.
Turning to `CC(C)CCC[C@@H](C)[C@H]1CCS[C@@]2(C)C3=C(CC[C@]12C)[C@@]1(C)CC[C@H](O)C(C)(C)[C@@H]1CC3` [Example 1508], the pIC50 was 5.90.
On to `CC(C)CCC[C@@H](C)[C@H]1CCS[C@H]2C3=C(CC[C@]12C)[C@@]1(C)CC[C@H](O)C(C)(C)[C@@H]1CC3` [Example 1509, 4,4-Dimethyl-15-thia-D-homo-5a-cholest-8-en-3b-ol], for which the pIC50 was 5.30.

Still in this assay, the particulars now being: CHO cells, tested under these same conditions.
As to `CC(C)CCC[C@@H](C)[C@H]1CC[C@H]2[C@@H]3CC=C4C[C@@H](O)CC[C@]4(C)[C@H]3CC[C@]12C` [cholesterol, reference compound], the “effect on measured HMGR activity” value is “without effect”.
As for `CC(C)CCC[C@@H](C)[C@H]1CC[C@@]2(C)C3=C(CC[C@]12C)[C@@]1(C)CC[C@H](O)C(C)(C)[C@@H]1CC3` [lanost-8-en-3b-ol, reference compound], the “effect on measured HMGR activity” value is given as “without effect”.
`CC(C)=CCC[C@@H](C)[C@H]1CC[C@@]2(C)C3=C(CC[C@]12C)[C@@]1(C)CC[C@H](O)C(C)(C)[C@@H]1CC3` [lanosta-8,24-diene-3b-ol, reference compound]: the “effect on measured HMGR activity” value is reported as “without effect”.

The test system of the next assay is cholesterol biosynthesis pathway. Description: Assay of 14C-Acetate Incorporation into the Biosynthesis of Cholesterol (HepG2 cells). The following applies: Homo sapiens, 22 hours with test compound, then 14C-acetate for additional 2 hours, read-out: IC50, inhibition of the incorporation of 14C-acetate into the cholesterol biosynthesis pathway. Type of assay: cell-based. Here is the method:
The HepG2 cells (a human hepatoma cell line) used in this example were obtained from the American Type Culture Collection (ATCC, Rockville, Md.). They were maintained in Dulbecco's Modified Eagles Medium and Ham's F12 Medium (1:1) supplemented with 10% heat inactivated Fetal Bovine serum, […] Herpes, 1 mM sodium pyruvate, 1×Non-essential Amino Acids (Gibco) and 2 mM L-glutamine.
The cells were harvested by washing cultures with 10 ml Hank's Balanced Salt Solution (2×) and incubating with 0.125% Trypsin in Versene (0.02% EDTA) for approximately one minute. After the cells are visibly rounded and loosened from the flask, 9 ml of the above medium is added. The cells are transferred to a […] culture dish and syringed up and down through a 20 gauge needle to break up aggregated clumps of cells. Cell cultures are plated at 0.1×10^6 /ml and 0.075×10^6 /ml in two 24 well plates, respectively, aliquoting 1 ml cells/well. The cells are allowed to attach for 24 hours (48 hours for the lower density plate) before washing 2× with HBSS and refed with 1 ml of the above medium with 1% Cabosil delipidated serum instead of Fetal Bovine Serum. The cells are treated with the test compounds after 24 hours of exposure to the delipidated serum media.
Chemicals are routinely prepared as a 10 mM solution in 100% ethanol or dimethyl sulfoxide (DMSO). All test compounds are added at 50 μM, 25 μM, 10 μM, 1 μM at a final concentration of 0.45% solvent, 0.25% Bovine Serum Albumin (BSA) suspension per well. The solvent BSA is sonicated for 10 seconds to ensure maximum solubilization before addition to the cells. Control wells receive solvent/BSA at the same concentrations as the drug treated cultures. […]
The eluted sterols are dried under nitrogen gas and resuspended in 150 μL ethanol. […] The samples are counted on the dual label ^3 H:^14 C program on the Beckman scintillation counter Model LS 7800.
The incorporation of both radiolabeled precursors into sterols is compared between the treated and non-treated (control) cultures and expressed as "% control" for each precursor. […]
Take `C=C[C@@]12OC[C@H]([C@H](C)/C=C/[C@H](C)C(C)C)[C@@]1(C)CCC1=C2CC[C@H]2C(C)(C)[C@@H](O)CC[C@]12C` [Example 28 (Compound 78), (22E)-4,4-Dimethyl-15-oxa-14α-vinylergosta-8,22-dien-3β-ol]: the pIC50 was 7.30.
With `C=C[C@@]12OC[C@H]([C@H](C)/C=C/[C@H](C)C(C)C)[C@@]1(C)CCC1=C2CC[C@H]2C[C@@H](O)CC[C@]12C` [Example 29 (Compound 80), (22E)-15-Oxa-14α-vinyl-ergosta-8,22-dien-3β-ol], the pIC50 is below 4.30.
With `CC[C@@]12OC[C@H]([C@H](C)CC[C@H](C)C(C)C)[C@@]1(C)CCC1=C2CC[C@H]2C[C@@H](O)CC[C@]12C` [Example 30 (Compound 81), 14α-Ethyl-15-oxa-ergost-8-en-3β-ol], the pIC50 was 6.22.
